The structures appear in SMILES notation. The source made the active and inactive calls. No cut-off for these calls is given here.

Assay [1] concerns the target DNA-PK/Ku70/Ku85 (Homo sapiens) (UniProt P78527+P12956+P13010). Kind of assay: Inhibition of DNAPK ATP labeling site harbouring KGGSWIQEINVAEK in human Huh-7 cells at 1 uM by KiNativ Profiling analysis relative to control. The format is cell-based.
Assay [2] concerns the target Atypical kinase COQ8B, mitochondrial (Homo sapiens) (UniProt Q96D53). Kind of assay: Inhibition of ADCK4 (unknown origin) at 1 uM by Ambit Kinomescan binding assay relative to control.
The target in assay [3] is cAMP-dependent protein kinase catalytic subunit beta (Homo sapiens) (UniProt P22694). As to the kind of experiment: Inhibition of PKAC beta (unknown origin) at 1 uM by Ambit Kinomescan binding assay relative to control.
For assay [4], the target named is Protein-tyrosine kinase 2-beta (Homo sapiens) (UniProt Q14289). Kind of assay: Inhibition of PYK2 (unknown origin) at 1 uM by Ambit Kinomescan binding assay relative to control.
Sequence of Protein-tyrosine kinase 2-beta (Homo sapiens) (Q14289 whole entry, looked up): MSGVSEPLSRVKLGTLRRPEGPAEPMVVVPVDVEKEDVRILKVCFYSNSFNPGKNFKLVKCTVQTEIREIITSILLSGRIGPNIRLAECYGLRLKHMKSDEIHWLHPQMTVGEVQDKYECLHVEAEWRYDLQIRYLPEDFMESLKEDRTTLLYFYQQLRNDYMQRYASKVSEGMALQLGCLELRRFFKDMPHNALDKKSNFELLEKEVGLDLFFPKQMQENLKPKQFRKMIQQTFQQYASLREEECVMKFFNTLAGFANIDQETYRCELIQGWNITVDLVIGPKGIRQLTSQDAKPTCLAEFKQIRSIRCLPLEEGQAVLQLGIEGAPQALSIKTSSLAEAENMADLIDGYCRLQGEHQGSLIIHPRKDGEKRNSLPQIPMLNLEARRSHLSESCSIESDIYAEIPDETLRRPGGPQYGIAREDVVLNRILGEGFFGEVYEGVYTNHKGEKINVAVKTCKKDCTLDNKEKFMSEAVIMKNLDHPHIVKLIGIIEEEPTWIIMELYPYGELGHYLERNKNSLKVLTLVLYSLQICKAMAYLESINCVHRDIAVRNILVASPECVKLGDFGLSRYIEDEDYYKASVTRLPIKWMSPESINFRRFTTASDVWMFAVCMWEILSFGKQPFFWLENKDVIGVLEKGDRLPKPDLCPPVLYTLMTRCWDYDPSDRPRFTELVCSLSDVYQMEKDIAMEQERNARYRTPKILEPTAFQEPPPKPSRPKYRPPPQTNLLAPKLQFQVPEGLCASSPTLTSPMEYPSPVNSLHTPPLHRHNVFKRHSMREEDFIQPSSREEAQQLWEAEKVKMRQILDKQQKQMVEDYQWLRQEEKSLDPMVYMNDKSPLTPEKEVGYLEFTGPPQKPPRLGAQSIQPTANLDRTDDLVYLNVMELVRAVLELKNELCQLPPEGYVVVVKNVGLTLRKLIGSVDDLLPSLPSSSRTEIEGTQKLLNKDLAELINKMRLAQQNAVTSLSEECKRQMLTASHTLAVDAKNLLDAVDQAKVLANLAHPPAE
Assay [5] addresses 5'-AMP-activated protein kinase catalytic subunit alpha-2 (Homo sapiens) (UniProt P54646). As to the kind of experiment: Inhibition of AMPKa2 Lys2 labeling site in human A-375 cells at 0.5 uM by KiNativ Profiling analysis relative to control. Type of assay: cell-based.
The test system of assay [6] is Mast/stem cell growth factor receptor Kit (Homo sapiens), P10721 [D816V]. As to the kind of experiment: Inhibition of KIT D816V mutant (unknown origin) at 1 uM by Ambit Kinomescan binding assay relative to control; values are per cent of control.
Sequence of Mast/stem cell growth factor receptor Kit (Homo sapiens), P10721 [D816V] (P10721 whole entry D816V): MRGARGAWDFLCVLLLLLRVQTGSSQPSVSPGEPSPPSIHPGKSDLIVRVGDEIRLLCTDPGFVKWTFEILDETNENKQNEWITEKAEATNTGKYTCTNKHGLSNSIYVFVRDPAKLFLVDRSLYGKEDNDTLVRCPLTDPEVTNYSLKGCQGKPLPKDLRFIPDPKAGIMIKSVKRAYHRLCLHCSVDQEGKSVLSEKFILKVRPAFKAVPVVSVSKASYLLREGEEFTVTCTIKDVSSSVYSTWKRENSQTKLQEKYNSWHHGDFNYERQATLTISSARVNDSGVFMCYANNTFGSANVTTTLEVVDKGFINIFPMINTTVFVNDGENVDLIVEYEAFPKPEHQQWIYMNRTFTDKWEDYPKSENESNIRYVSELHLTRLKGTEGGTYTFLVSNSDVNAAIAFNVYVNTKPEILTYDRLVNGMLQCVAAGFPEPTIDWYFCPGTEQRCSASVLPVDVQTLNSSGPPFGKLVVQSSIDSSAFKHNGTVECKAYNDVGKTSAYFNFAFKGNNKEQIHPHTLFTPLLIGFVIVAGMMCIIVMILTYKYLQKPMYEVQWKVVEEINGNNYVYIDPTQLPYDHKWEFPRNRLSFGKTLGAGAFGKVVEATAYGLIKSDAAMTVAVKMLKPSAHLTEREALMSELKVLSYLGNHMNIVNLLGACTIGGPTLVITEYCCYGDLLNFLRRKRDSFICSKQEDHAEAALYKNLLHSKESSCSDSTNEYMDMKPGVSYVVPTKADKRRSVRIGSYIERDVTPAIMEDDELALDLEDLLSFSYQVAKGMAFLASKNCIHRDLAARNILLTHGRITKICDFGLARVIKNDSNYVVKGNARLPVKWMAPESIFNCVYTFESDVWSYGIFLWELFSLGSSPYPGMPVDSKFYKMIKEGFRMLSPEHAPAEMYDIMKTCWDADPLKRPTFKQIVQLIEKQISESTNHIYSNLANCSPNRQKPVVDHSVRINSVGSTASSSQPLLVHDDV
Assay [7] relates to Proto-oncogene tyrosine-protein kinase receptor Ret (Homo sapiens), P07949 [V804M]. Kind of assay: Inhibition of RET V804M mutant (unknown origin) at 1 uM by Ambit Kinomescan binding assay relative to control; values are per cent of control.
Sequence of Proto-oncogene tyrosine-protein kinase receptor Ret (Homo sapiens), P07949 [V804M] (P07949 whole entry V804M): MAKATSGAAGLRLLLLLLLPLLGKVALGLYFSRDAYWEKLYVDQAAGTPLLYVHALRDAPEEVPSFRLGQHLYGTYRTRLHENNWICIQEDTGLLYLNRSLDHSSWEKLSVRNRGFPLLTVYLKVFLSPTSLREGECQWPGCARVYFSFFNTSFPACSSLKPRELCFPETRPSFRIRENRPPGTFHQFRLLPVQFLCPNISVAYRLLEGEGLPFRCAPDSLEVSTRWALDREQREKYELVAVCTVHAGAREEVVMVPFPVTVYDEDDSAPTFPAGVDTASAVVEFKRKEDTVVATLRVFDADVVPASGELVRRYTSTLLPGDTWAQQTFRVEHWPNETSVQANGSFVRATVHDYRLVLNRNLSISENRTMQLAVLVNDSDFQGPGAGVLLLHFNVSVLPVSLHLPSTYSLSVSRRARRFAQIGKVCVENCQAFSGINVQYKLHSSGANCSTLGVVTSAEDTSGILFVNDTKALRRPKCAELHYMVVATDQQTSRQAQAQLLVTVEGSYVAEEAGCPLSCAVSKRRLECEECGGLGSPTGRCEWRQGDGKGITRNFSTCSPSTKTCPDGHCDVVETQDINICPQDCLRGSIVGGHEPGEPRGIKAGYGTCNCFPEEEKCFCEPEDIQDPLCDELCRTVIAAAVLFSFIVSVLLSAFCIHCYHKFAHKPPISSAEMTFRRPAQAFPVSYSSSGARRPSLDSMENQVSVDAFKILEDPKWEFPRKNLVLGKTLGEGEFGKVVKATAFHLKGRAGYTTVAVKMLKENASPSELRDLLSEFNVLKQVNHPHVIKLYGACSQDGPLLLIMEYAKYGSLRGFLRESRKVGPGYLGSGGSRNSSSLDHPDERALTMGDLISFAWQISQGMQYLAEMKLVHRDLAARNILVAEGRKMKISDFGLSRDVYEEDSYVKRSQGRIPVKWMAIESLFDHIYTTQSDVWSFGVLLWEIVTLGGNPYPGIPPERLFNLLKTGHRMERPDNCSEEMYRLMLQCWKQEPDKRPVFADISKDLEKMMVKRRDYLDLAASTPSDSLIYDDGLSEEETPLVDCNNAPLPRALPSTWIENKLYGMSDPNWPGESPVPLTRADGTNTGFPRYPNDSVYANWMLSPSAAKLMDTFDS
Assay [8] addresses Calcium/calmodulin-dependent protein kinase type 1G (Homo sapiens) (UniProt Q96NX5). Kind of assay: Inhibition of CAMK1G (unknown origin) at 10 uM by Ambit Kinomescan binding assay relative to control.
Assay [9] concerns the target T1, Dual specificity mitogen-activated protein kinase kinase 6 (Homo sapiens) (UniProt P52564).
T1 sequence (whole entry): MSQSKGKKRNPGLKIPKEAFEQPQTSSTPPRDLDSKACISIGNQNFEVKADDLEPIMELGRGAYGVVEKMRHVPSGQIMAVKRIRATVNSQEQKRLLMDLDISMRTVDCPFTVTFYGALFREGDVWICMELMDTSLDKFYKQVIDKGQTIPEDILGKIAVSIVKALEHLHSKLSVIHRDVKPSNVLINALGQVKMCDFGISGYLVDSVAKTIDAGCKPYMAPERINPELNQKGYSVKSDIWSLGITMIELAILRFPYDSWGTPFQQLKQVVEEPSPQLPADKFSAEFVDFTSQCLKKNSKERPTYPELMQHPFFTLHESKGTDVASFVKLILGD
As to the kind of experiment: Inhibition of MEK6 (unknown origin) at 10 uM by Ambit Kinomescan binding assay.

The target in assay [10] is Mitogen-activated protein kinase 3 (Homo sapiens) (UniProt P27361). Kind of assay: Inhibition of Erk1 Lys2 labeling site harbouring DLKPSNLLINTTCDLK in human A-375 cells at 0.05 uM by KiNativ Profiling analysis relative to control. The format is cell-based.
Sequence of Mitogen-activated protein kinase 3 (Homo sapiens) (P27361 whole entry): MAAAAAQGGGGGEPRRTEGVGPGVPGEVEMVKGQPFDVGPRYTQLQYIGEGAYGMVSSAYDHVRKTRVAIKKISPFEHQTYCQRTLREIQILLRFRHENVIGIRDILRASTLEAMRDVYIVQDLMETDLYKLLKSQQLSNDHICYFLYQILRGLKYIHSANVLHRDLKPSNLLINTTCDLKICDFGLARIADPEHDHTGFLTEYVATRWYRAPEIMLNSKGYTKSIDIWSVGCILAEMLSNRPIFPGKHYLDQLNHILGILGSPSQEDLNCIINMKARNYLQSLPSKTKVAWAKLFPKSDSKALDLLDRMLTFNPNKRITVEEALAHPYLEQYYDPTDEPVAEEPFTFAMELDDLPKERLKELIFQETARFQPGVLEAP
For assay [11], the target named is T2, Phosphatidylinositol 5-phosphate 4-kinase type-2 gamma (Homo sapiens) (UniProt Q8TBX8).
T2 sequence (whole entry): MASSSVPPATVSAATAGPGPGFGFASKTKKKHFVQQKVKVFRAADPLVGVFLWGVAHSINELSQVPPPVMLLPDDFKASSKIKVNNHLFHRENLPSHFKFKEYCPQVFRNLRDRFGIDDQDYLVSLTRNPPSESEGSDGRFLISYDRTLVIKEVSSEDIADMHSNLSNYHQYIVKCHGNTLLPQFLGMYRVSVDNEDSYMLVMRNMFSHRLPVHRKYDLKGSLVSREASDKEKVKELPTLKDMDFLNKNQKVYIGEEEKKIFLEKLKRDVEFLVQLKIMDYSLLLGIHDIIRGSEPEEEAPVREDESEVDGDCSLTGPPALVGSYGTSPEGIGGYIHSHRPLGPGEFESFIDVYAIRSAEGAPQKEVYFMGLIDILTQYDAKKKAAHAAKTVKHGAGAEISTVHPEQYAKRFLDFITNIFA
As to the kind of experiment: Inhibition of PIP5K2C ATP labeling site harbouring VKELPTLKDMDFLNK in human Huh-7 cells at 10 uM by KiNativ Profiling analysis relative to control. Type of assay: cell-based.

Assay [12] concerns the target T3, Serine/threonine-protein kinase Chk1 (Homo sapiens) (UniProt O14757).
T3 sequence (whole entry): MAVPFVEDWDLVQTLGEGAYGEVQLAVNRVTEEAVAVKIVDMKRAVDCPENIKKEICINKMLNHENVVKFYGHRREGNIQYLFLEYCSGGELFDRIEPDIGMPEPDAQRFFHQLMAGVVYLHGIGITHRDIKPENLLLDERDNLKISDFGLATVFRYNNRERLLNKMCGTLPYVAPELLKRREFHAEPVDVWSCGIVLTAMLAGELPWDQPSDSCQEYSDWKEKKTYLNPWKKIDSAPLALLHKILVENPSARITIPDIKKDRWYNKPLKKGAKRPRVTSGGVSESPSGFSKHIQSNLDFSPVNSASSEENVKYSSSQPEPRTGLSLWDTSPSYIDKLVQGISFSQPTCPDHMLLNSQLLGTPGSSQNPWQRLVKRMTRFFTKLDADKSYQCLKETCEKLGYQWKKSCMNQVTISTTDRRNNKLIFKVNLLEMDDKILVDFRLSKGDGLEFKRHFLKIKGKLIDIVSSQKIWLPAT
As to the kind of experiment: Inhibition of CHK1 in human Huh-7 cells at 1 uM by KiNativ Profiling analysis relative to control. The format is cell-based.

Sequence of Calcium/calmodulin-dependent protein kinase type 1G (Homo sapiens) (Q96NX5 whole entry): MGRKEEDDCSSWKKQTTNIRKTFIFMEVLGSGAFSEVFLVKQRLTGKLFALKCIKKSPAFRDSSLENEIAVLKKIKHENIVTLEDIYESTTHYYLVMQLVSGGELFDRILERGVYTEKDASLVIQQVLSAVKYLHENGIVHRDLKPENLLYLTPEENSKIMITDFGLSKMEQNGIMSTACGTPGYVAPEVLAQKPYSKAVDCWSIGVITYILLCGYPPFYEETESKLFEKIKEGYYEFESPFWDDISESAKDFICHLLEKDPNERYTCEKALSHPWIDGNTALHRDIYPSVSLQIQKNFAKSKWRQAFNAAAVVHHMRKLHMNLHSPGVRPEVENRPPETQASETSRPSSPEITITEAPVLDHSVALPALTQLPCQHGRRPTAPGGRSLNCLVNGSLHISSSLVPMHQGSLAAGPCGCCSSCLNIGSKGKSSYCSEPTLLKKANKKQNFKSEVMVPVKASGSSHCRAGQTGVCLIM
Sequence of 5'-AMP-activated protein kinase catalytic subunit alpha-2 (Homo sapiens) (P54646 whole entry, looked up): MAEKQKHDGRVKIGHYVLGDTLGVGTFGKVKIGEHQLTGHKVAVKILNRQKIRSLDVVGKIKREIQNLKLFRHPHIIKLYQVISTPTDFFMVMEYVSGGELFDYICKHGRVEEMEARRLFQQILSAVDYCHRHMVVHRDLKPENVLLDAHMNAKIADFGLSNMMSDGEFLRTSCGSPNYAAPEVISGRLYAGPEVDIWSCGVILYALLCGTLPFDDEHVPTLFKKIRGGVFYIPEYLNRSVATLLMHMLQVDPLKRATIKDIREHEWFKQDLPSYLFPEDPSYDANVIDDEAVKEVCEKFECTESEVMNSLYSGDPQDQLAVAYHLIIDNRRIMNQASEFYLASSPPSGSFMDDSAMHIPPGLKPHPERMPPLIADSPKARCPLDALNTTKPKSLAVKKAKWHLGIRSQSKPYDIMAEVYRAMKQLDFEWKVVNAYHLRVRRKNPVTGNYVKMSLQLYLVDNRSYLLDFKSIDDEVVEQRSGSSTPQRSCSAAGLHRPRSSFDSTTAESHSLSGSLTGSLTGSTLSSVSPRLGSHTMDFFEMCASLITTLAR
Sequence of Atypical kinase COQ8B, mitochondrial (Homo sapiens) (Q96D53 whole entry): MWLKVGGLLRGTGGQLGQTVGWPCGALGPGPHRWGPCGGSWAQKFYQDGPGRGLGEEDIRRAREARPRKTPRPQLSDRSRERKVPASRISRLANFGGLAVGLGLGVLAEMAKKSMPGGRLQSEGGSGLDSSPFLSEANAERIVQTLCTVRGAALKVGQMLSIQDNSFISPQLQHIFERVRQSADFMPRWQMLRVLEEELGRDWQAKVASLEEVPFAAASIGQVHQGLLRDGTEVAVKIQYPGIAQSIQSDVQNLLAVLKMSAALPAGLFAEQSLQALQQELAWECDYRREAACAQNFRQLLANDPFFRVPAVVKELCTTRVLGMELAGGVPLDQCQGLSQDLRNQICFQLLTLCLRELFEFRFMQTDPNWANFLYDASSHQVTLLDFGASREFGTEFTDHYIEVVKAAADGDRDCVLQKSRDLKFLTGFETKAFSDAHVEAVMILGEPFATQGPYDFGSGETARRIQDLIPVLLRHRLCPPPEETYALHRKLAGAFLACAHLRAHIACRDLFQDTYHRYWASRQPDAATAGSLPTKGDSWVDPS

As a reminder, the inhibition is the drop in the measured response relative to a control, in per cent. With `CNc1cc(Oc2cc(C(=O)Nc3cc(N4CCN(C)CC4)cc(C(F)(F)F)c3)ccc2C)ncn1`, the inhibition in assay [1] came out at 71.1%.

Broadly, the residual activity is the signal under treatment as a percentage of the control signal. A low value points to little activity left. For `CCN1CCN(Cc2ccc(NC(=O)c3ccc(C)c(/C=C/c4cnc5[nH]ccc5c4OC)c3)cc2C(F)(F)F)CC1`, the inhibition is 81% in [2], 76% in assay [3], 19% in assay [4] and -8.2% in [5]. The compound further came in with a residual activity in assay [6] of 8.8%. Also, in assay [7], the percent of control was found to be 0.8%.

Take `CCN1CCN(Cc2ccc(NC(=O)c3ccc(C)c(Oc4ccnc5[nH]ccc45)c3)cc2C(F)(F)F)CC1`: the inhibition was 20% in [8], 0.9% in [10], 11.6% in [11] and -0.4% in assay [12]. Moreover, the inhibition result in assay [9] is “inactive”.

The values above are taken from ChEMBL document CHEMBL5696442, “Discovery of type II inhibitors of TGFβ-activated kinase 1 (TAK1) and mitogen-activated protein kinase kinase kinase kinase 2 (MAP4K2)” (J Med Chem, 2015).
